These results are taken from patent US20240383882A1 (Ecstasy LLC, priority 2020, published 2024).

SMILES strings stand for the structures.

The subject of one assay is male C57BL/6 mice. In words: 55° C. warm-water tail-flick test (antinociception). Type of assay: in vivo. Conditions: Mus musculus, sc, 0.5 h, compounds of Table I; s.c.; 30 min; 55° C. water; configuration tested as in Table II; read-out: ED50 (mg/kg) at 30 min on C57BL/6 mice in Warm-water Tail-flick Test. As to the method: Antinociception was assessed using the 55° C. warm-water tail-flick test. The latency to the first sign of a rapid tail flick was taken as the behavioral endpoint. Each mouse was first tested for baseline latency by immersing its tail in the water and recording the time to response. Mice not responding within 2 secs were excluded from further testing. Responsive mice were then s.c. administered the test compound and tested for antinociception at 30 min, 60 min, 90 min, and 120 min time points afterward. Antinociception was calculated using the following formula: percentage of antinociception=100×(test latency−control latency)/(20−control latency).
The following new compounds were also made and tested to determine the half maximal possible effective dose, or ED50 (mg/kg), in mice, using one of: the warm water tail-flick test as in Table II, spared nerve injury, chronic constriction injury, or Complete Freund's adjuvant induced inflammatory pain. The symbols in the last column are: + indicates ED 50>50 mg/kg; ++ indicates ED 50 is less than or equal to 30 mg/kg.
(In general: Thermal pain tests record how soon the animal reacts.)
For the compound `Cc1ccc(S(=O)(=O)NCC2(CCc3cc(C)c(C)s3)CCN(C(C)(C)c3ccc(C)nc3)C2)cc1` (single isomer, unassigned) [Compound 126], the ED50 is at most 30 mg/kg.

With `Cc1ccc(C(C)(C)N2CCC(CCc3cccs3)(COC(F)F)C2)cn1` (single isomer, unassigned) [Compound 82, (R or S)-5-(2-(3-((difluoromethoxy)methyl)-3-(2-(thiophen-2-yl)ethyl)pyrrolidin-1-yl)propan-2-yl)-2-methylpyridine citarte], the ED50 was at most 30 mg/kg.

Regarding `Cc1ccc(S(=O)(=O)NC(c2ccccn2)C2(CCc3ccc(F)s3)CCN(C(C)(C)c3ccc(C)nc3)C2)cc1` (single isomer, unassigned) [Compound 321], the ED50 was at most 30 mg/kg.

In the case of `CCOC(C)C1(CCc2cccs2)CCN(C(C)(C)c2ccc(C)nc2)C1` (single isomer, unassigned) [Compound 5], the ED50 is at most 30 mg/kg.

The same assay, now with this note: Mus musculus, sc, 0.5 h, compounds of Table V; s.c.; 30 min; 55° C. water; read-out: ED50 (mg/kg) at 30 min on C57BL/6 mice in Warm-water Tail-flick Test (same conditions as Table II).
On to `CCOCC1(CCc2ccccc2)CCN(C(C)(C)c2ccc(-c3cn[nH]n3)cc2)CC1` [Compound 5], for which the ED50 was at most 30 mg/kg.

The same assay, now with this note: Mus musculus; half maximal effective dose in mice; using one of: warm water tail-flick test, spared nerve injury, chronic constriction injury, or Complete Freund's adjuvant induced inflammatory pain (not stated which per compound); read-out: Biological Activity (ED50).
For the compound `COc1cccc(C(C)(C)N2CC[C@@](CCc3ccc(C#N)cc3)(C(N)=O)C2)c1` [Compound 148, (R)-3-(4-cyanophenethyl)-1-(2-(3-methoxyphenyl)propan-2-yl)pyrrolidine-3-carboxamide], the ED50 was over 50 mg/kg.

`CCOC[C@@]1(CCc2ccc(S(C)(=O)=O)cc2)CCN(C(C)(C)c2ccc(Cl)cc2)C1` [Compound 51]: the ED50 is at most 30 mg/kg.

On to `CCOC[C@]1(CCc2ccccc2C#N)CCN(C(C)(C)c2ccccn2)C1` [Compound 130, (R)-2-(2-(3-(ethoxymethyl)-1-(2-(pyridin-2-yl)propan-2-yl)pyrrolidin-3-yl)ethyl) benzonitrile], for which the ED50 is over 50 mg/kg.

As to `CC(C)(c1ccccn1)N1CC[C@@](CCc2cccc(C#N)c2)(COCc2ccccc2)C1` [Compound 125, (R)-3-(2-(3-((benzyloxy)methyl)-1-(2-(pyridin-2-yl)propan-2-yl)pyrrolidin-3-yl)ethyl) benzonitrile], the ED50 is over 50 mg/kg.

On to `CNC(=O)[C@]1(CCc2ccc(C#N)cc2)CCN(C(C)(C)c2ccccn2)C1` [Compound 155, (R)-3-(4-cyanophenethyl)-N-methyl-1-(2-(pyridin-2-yl)propan-2-yl)pyrrolidine-3-carboxamide], for which the ED50 is at most 30 mg/kg.

For `COC[C@@]1(CCc2ccccc2)CCN(N(C)c2ccc(C)nc2)C1` (single isomer, unassigned) [Compound 69], the ED50 is over 50 mg/kg.

Turning to `CCOC(c1ccccc1)[C@]1(CCc2ccc(C#N)cc2)CCN(C(C)(C)c2ccccc2)C1` (single isomer, unassigned) [Compound 31, 4-(2-((R)-3-((R or S)-ethoxy(phenyl)methyl)-1-(2-phenylpropan-2-yl)pyrrolidin-3-yl)ethyl)benzonitrile], the ED50 was over 50 mg/kg.

For `CC(C)(c1ccc(Cl)cc1)N1CC[C@](CCc2ccc(S(C)(=O)=O)cc2)(C(O)C(F)(F)F)C1` (single isomer, unassigned) [Compound 98, (R or S)-1-((S)-1-(2-(4-chlorophenyl)propan-2-yl)-3-(4-(methylsulfonyl)phenethyl)pyrrolidin-3-yl)-2,2,2-trifluoroethan-1-ol], the ED50 is at most 30 mg/kg.

For the compound `CC(C)(c1ccccn1)N1CC[C@](COCc2ccccc2)(C2CCCO2)C1` (single isomer, unassigned) [Compound 42], the ED50 was over 50 mg/kg.

In the case of `CCOC(C(F)(F)F)(C(F)(F)F)[C@]1(CCc2ccc(F)cc2)CCN(Cc2cccnc2)C1` [Compound 14, (R)-3-((3-(2-ethoxy-1,1,1,3,3,3-hexafluoropropan-2-yl)-3-(4-fluorophenethyl)pyrrolidin-1-yl)methyl)pyridine], the ED50 was over 50 mg/kg.

As for `CC(C)(c1ccccn1)N1CC[C@@](CCc2ccc(C#N)cc2)(C(=O)Nc2ccc(F)cn2)C1` [Compound 207, (R)-3-(4-cyanophenethyl)-N-(5-fluoropyridin-2-yl)-1-(2-(pyridin-2-yl)propan-2-yl)pyrrolidine-3-carboxamide], the ED50 was at most 30 mg/kg.

`CC(O)[C@]1(CCc2ccc(C#N)cc2)CCN(C(C)(C)c2ccc(C(F)(F)F)nc2)C1` (single isomer, unassigned) [Compound 214, 4-(2-((R)-3-((R or S)-1-hydroxyethyl)-1-(2-(6-(trifluoromethyl)pyridin-3-yl)propan-2-yl)pyrrolidin-3-yl)ethyl) benzonitrile]: the ED50 was at most 30 mg/kg.

Turning to `CC(C)(c1ccccn1)N1CC[C@@](CCc2ccc(C#N)cc2)(CNC2(C(F)(F)F)COC2)C1` [Compound 202, (S)-4-(2-(1-(2-(pyridin-2-yl)propan-2-yl)-3-(((3-(trifluoromethyl)oxetan-3-yl)amino)methyl)pyrrolidin-3-yl)ethyl) benzonitrile], the ED50 is over 50 mg/kg.

As to `Cc1ccc(C(C)(C)N2CC[C@@](CCc3ccc(F)cc3)(C(O)C(F)(F)F)C2)cn1` (single isomer, unassigned) [Compound 78], the ED50 was at most 30 mg/kg.

As to `Cc1ccc(C(C)(C)N2CC[C@@](CCc3ccc(C#N)cc3)(C(=O)C(F)(F)F)C2)cn1` [Compound 166, (R)-4-(2-(1-(2-(6-methylpyridin-3-yl)propan-2-yl)-3-(2,2,2-trifluoroacetyl)pyrrolidin-3-yl)ethyl) benzonitrile], the ED50 was at most 30 mg/kg.

As for `CC(C)(c1ccccn1)N1CC[C@@](CCc2ccc(C#N)cc2)(C(=O)NC2(C#N)COC2)C1` [Compound 208, (R)-N-(3-cyanooxetan-3-yl)-3-(4-cyanophenethyl)-1-(2-(pyridin-2-yl)propan-2-yl)pyrrolidine-3-carboxamide], the ED50 is at most 30 mg/kg.

As to `N#Cc1ccc(CC[C@@]2(C3OCC3(F)F)CCN(Cc3cccnc3)C2)cc1` (single isomer, unassigned) [Compound 197, 4-(2-((R)-3-((R or S)-3,3-difluorooxetan-2-yl)-1-(pyridin-3-ylmethyl)pyrrolidin-3-yl)ethyl) benzonitrile], the ED50 is at most 30 mg/kg.

Take `N#Cc1ccc(CC[C@@]2(C3OCC3(F)F)CCN(Cc3ccccn3)C2)cc1` (single isomer, unassigned) [Compound 196, 4-(2-((R)-3-((R or S)-3,3-difluorooxetan-2-yl)-1-(pyridin-2-ylmethyl)pyrrolidin-3-yl)ethyl) benzonitrile]: the ED50 was at most 30 mg/kg.

On to `COc1cccc(C(C)(C)N2CC[C@@](CCc3ccc(C#N)cc3)(C(N)=O)C2)n1` [Compound 159, (R)-3-(4-cyanophenethyl)-1-(2-(6-methoxypyridin-2-yl)propan-2-yl)pyrrolidine-3-carboxamide], for which the ED50 was at most 30 mg/kg.

On to `CC(C)(c1ccccn1)N1CC[C@](CO)(CCc2ccccc2C#N)C1` [Compound 129, (R)-2-(2-(3-(hydroxymethyl)-1-(2-(pyridin-2-yl)propan-2-yl)pyrrolidin-3-yl)ethyl) benzonitrile], for which the ED50 is over 50 mg/kg.

Consider `CC1(C)COC1[C@]1(CCc2ccc(C#N)cc2)CCN(Cc2ccc(Cl)cc2)C1` (single isomer, unassigned) [Compound 195, 4-(2-((R)-1-(4-chlorobenzyl)-3-((R or S)-3,3-dimethyloxetan-2-yl)pyrrolidin-3-yl)ethyl) benzonitrile], for which the ED50 is at most 30 mg/kg.

`COC[C@@]1(CCc2ccc(S(C)(=O)=O)cc2)CCN(C(C)(C)c2ccc(Cl)cc2)C1` [Compound 43]: the ED50 was over 50 mg/kg.

As to `COC(C(F)(F)F)(C(F)(F)F)[C@]1(COCc2ccccc2)CCN(C2(c3ncon3)COC2)C1` [Compound 24], the ED50 was over 50 mg/kg.

For `CC(C)(c1ccc(Cl)cc1)N1CC[C@](CO)(CCc2ccc(S(C)(=O)=O)cc2)C1` [Compound 35, (R)-(1-(2-(4-chlorophenyl)propan-2-yl)-3-(4-(methylsulfonyl)phenethyl)pyrrolidin-3-yl)methanol], the ED50 was over 50 mg/kg.

In the case of `COc1cccc(C(C)(C)N2CC[C@](CO)(CCc3ccc(C#N)cc3)C2)n1` [Compound 157, (R)-4-(2-(3-(hydroxymethyl)-1-(2-(6-methoxypyridin-2-yl)propan-2-yl)pyrrolidin-3-yl)ethyl) benzonitrile], the ED50 is at most 30 mg/kg.

For the compound `CCOC(C(F)(F)F)(C(F)(F)F)[C@]1(CCc2ccc(C#N)cc2)CCN(Cc2cccnc2)C1` [Compound 9, (R)-4-(2-(3-(2-ethoxy-1,1,1,3,3,3-hexafluoropropan-2-yl)-1-(pyridin-3-ylmethyl)pyrrolidin-3-yl)ethyl) benzonitrile], the ED50 was over 50 mg/kg.

With `CC(C)(c1ccccn1)N1CC[C@](CO)(CCc2ccc3nonc3c2)C1` [Compound 167, (R)-(3-(2-(benzo[c][1,2,5]oxadiazol-5-yl)ethyl)-1-(2-(pyridin-2-yl)propan-2-yl)pyrrolidin-3-yl)methanol], the ED50 was at most 30 mg/kg.

For `COC[C@@]1(CCc2ccc(S(C)(=O)=O)cc2)CCN(C(C)(C)c2ccc(Cl)cn2)C1` [Compound 45], the ED50 was over 50 mg/kg.

As to `CC(C)(c1ccccn1)N1CC[C@@](CCc2ccccc2C#N)(COCc2ccccc2)C1` [Compound 126, (R)-2-(2-(3-((benzyloxy)methyl)-1-(2-(pyridin-2-yl)propan-2-yl)pyrrolidin-3-yl)ethyl) benzonitrile], the ED50 was over 50 mg/kg.
